{
  "source": "paper PMC6468747",
  "about": "(Cancers, 2019)",
  "key": {"MDA-MB-231 cells [1]": {"system": "MDA-MB-231 cells", "assay": "Head-to-head MTT antiproliferative assay, 6-day exposure", "format": "cell-based, human", "protocol": "(§1) Figure 2 VNLG-152R inhibits mTORC1 signaling and the production of pro-inflammatory cytokines. (A) MDA-MB-231 and MDA-MB-468 cells were treated with the indicated concentrations of VNLG-152R for 72 h. Cell lysates were analyzed by immunoblotting with the indicated antibodies. (B) Head-to-head antiproliferative effects of VNLG-152R and eFT508 on MDA-MB-231 and MDA-MB-468 cells. The dose-response curves were generated from MTT assays after 6-day exposure to different concentrations of the compounds. Each point is a mean of replicates from three independent experiments. (C–E) MDA-MB-231 cell were treated with the indicated concentration of VNLG-152R or eFT508 for 72 h. Cell supernatants were collected, and the indicated cytokines were quantitated by Multiplex Luminex assay.\n(§2) Cell growth inhibition assay was performed as described previously. For cell growth experiment, cells were treated with the VNLG-152R, VNLG-152E1 or VNLG-15E2 for 7 days. MTT assay was performed at the end of the experiment. Results represent the mean ± standard deviation of three independent experiments."}, "MDA-MB-468 cells": {"system": "MDA-MB-468 cells", "assay": "Head-to-head MTT antiproliferative assay, 6-day exposure", "format": "cell-based, human", "protocol": "as §1, §2"}, "MDA-MB-231 cells [2]": {"system": "MDA-MB-231 cells", "assay": "MTT cell viability with/without siMnk1 knockdown", "format": "cell-based, human", "details": "5 μM", "protocol": "Small interfering RNA targeting the Mnk1 (siMnk1) gene and corresponding scramble siRNA sequence (siControl) were purchased from Ambion ((Waltham, MA, USA). Briefly, 3 × 10^5 MDA-MB-231 cells were seeded into 6 cm cell culture dish (Corning®) and incubated for 24 h in for normal culture medium. Subsequently, cells were subjected to transfection with 100 nM of siMnk1 or siControl using the RNAi Human/Mouse Starter Kit (Qiagen, (Qiagen, Hilden, Germany) following the manufacturer’s instructions for 48 h. For cell growth assay experiments, transfection complex was removed after 48 h, cells were washed twice with phosphate-buffered saline and replaced with normal growth medium. Twenty-four hour later, 5 μM of VNLG-152R was added to the growth media and harvested after 24 h. Non-transfected cells were also treated with 5 μM of VNLG-152R for 24 h. Protein silencing was confirmed by immunoblot analysis."}, "[3]": {"assay": "Plasma pharmacokinetics after single IV and PO dosing", "format": "in vivo, female CD1 mice", "details": "female, CD-1, mouse, plasma; for AUC(0-inf): read-out: AUC(0-inf)", "protocol": "5. In vivo Pharmacokinetics (PK) Determination: These studies were Performed by Charles River Laboratories (CRL), Discovery Services, 251 Ballardvale Street, Wilmington, MA 01887, USA.\nThe PK studies were performed according to the guidelines and approval of CRL Institutional Animal Care and Use Committee (IACUC) under IACUC approval no: P04172013.\nA total of sixty‐four naïve female CD‐1 mice (including 6 spare animals) were received from Charles River Laboratories, Kingston, NY. Following an acclimation period, the animals were assigned to the study based on acceptable health as determined by a staff veterinarian. For dosing, animals were placed into six groups as detailed in the study design table below. All animals were fasted overnight prior to dosing and food was returned after the 4‐h post‐dose blood collections.\nEach animal in Groups 1, 3 and 5 received a single administration of prepared test article by intravenous tail administration at a target dose level of 2 mg/kg and dose volume of 10 mL/kg. Each animal in Groups 2, 4 and 6 received a single administration of prepared test article by oral gavage at a target dose level of 20 mg/kg and at a dose volume of 10 mL/kg. Dosing was performed on August 13, 2015 as detailed in the study protocol and was completed without incident. Dose administration […]\nFollowing dosing and at each sample collection time\nGroup Mices Test Compound Level Conc. Volume Dose Vehicle Route […]\nInterim blood samples were collected in a leapfrog design from each animal by puncture of a submandibular vein and a terminal blood sample was collected from each animal by intracardiac puncture following euthanasia with CO2 as outlined in the sample collection table below.\nAll blood samples were transferred into tubes containing K2EDTA anticoagulant and placed on wet ice immediately after collection until centrifuged at 2200 × g for 10 min at […] to isolate plasma.\nThe resulting plasma was transferred to individual polypropylene tubes in a 96‐well plate format and immediately placed on dry ice until storage at nominally […] before transfer to the Test Facility’s bioanalysis group for concentration and HPLC analysis. Individual blood collection times are […]\nTable S4. Sample Collections.\nCollection Information Whole Blood for Plasma Whole Blood for Plasma\nSubgroup A (n = 3) 5 min & 1 h post‐dose 8 h post‐dose\nSubgroup B (n = 3) 15 min & 4 h post‐dose 12 h post‐dose\nSubgroup C (n = 3) 30 min & 6 h post‐dose 24 h post‐dose\nSubgroup D (n = 2) Not applicable 2 h post‐dose\nSubgroup A (n = 3) 15 min & 2 h post‐dose 8 h post‐dose\nSubgroup B (n = 3) 30 min & 4 h post‐dose 12 h post‐dose\nSubgroup C (n = 3) 1 hr & 6 h post‐dose 24 h post‐dose\nCollection conditions K2EDTA K2EDTA\nCollection route Submandibular Intracardiac puncture\nVolume/Time point 100 μL Maximum volume\nThe plasma samples for Groups 1‐6, Subgroups A‐C were analyzed for test article concentration using a Research Grade LC MS/MS Assay (RGA‐Level 1). The bioanalytical report, including plasma […]\nPharmacokinetic parameters were estimated from the plasma concentration‐time data using standard non‐compartmental methods and utilizing suitable analysis software (Watson 7.2 Bioanalytical LIMS, Thermo Electron Corp). Parameters were estimated using nominal sampling times relative to the start of each dose administration (within an acceptable tolerance limit).\nConcentrations below the limit of quantification were excluded from the pharmacokinetic analysis.\nThe area under the plasma test item concentration versus time curve (AUC) was calculated using the linear‐log‐linear trapezoidal method. When practical, the terminal elimination phase of each concentration versus time curve was identified using at least the final three observed concentration values. The slope of the terminal elimination phase was determined using log linear regression on the unweighted concentration data.\nParameter Description of Parameter […]"}},
  "note": "Like-named read-outs stand apart in the source and are kept apart here.",
  "data": [
    {"smiles": "CC1=C(/C=C/C(C)=C/C=C/C(C)=C/C(=O)Nc2ccc(F)cc2)C(C)(C)CCC1n1ccnc1", "note": "(racemic) [VNLG-152R, 4-(±)-(1H-imidazol-1-yl)-N-(4-fluorophenyl)-(E)-retinamide]", "values": [
      {"measurement": "GI50", "setting": "MDA-MB-231 cells [1]", "value": 890, "unit": "nM"},
      {"measurement": "fold difference of GI50 (eFT508 vs VNLG-152R)", "setting": "MDA-MB-231 cells [1]", "value": 8, "unit": "fold"},
      {"measurement": "GI50", "setting": "MDA-MB-231 cells [1]; Homo sapiens, MDA-MB-231, 144 h", "value": 891, "unit": "nM"},
      {"measurement": "GI50", "setting": "MDA-MB-468 cells", "value": 500, "unit": "nM"},
      {"measurement": "fold difference of GI50 (eFT508 vs VNLG-152R)", "setting": "MDA-MB-468 cells", "value": 105, "unit": "fold"},
      {"measurement": "GI50", "setting": "MDA-MB-468 cells; Homo sapiens, MDA-MB-468, 144 h", "value": 501, "unit": "nM"},
      {"measurement": "reduction in cell viability", "setting": "MDA-MB-231 cells [2]; non-transfected MDA-MB-231 cells", "value": "~ 75%"},
      {"measurement": "cell viability in cells harboring Mnk1 knockdown", "setting": "MDA-MB-231 cells [2]; siMnk1-transfected MDA-MB-231 cells", "value": "did not show any significant decrease in cell viability"},
      {"measurement": "bioavailability", "setting": "[3]; PO 20 mg/kg vs IV 2 mg/kg, read-out: F (%) oral bioavailability", "value": 121, "unit": "%"},
      {"measurement": "half-life", "setting": "[3]; IV, 2 mg/kg", "value": 115, "unit": "min"},
      {"measurement": "AUC(0-inf)", "setting": "[3]; IV, 2 mg/kg", "value": 1130, "unit": "ng·h/mL"},
      {"measurement": "half-life", "setting": "[3]; PO, 20 mg/kg", "value": 555, "unit": "min"},
      {"measurement": "AUC(0-inf)", "setting": "[3]; PO, 20 mg/kg", "value": 13700, "unit": "ng·h/mL"},
      {"measurement": "Cmax", "setting": "[3]; PO, 20 mg/kg, read-out: Cmax", "value": 3750, "unit": "ng/mL"}
    ]}
  ]
}
